Experiments:
[1] = target: T1, Adenosine receptor A3 (Oryctolagus cuniculus, UniProt O02667)
T1 sequence (O02667 whole entry): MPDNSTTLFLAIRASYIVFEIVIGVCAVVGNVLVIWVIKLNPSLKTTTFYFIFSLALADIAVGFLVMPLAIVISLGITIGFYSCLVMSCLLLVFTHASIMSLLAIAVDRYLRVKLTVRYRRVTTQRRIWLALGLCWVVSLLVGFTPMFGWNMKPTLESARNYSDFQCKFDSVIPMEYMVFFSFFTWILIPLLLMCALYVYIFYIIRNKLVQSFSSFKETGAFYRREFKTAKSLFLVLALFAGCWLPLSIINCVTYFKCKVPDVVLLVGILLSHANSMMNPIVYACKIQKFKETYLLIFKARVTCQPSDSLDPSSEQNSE

[2] = target: T2, Adenosine receptor A1 (Oryctolagus cuniculus, UniProt P34970)
T2 sequence (P34970 whole entry): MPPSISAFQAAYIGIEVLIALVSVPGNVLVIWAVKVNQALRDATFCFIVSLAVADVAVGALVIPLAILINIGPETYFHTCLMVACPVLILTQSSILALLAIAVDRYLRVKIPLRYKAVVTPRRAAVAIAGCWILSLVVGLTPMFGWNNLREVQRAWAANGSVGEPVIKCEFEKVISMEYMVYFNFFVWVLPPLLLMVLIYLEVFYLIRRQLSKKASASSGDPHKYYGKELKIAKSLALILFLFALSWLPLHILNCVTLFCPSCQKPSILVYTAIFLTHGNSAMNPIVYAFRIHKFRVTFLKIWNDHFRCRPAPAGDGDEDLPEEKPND

[3] = target: T3, Adenosine receptor A1 (Homo sapiens, UniProt P30542)
T3 sequence (P30542 whole entry): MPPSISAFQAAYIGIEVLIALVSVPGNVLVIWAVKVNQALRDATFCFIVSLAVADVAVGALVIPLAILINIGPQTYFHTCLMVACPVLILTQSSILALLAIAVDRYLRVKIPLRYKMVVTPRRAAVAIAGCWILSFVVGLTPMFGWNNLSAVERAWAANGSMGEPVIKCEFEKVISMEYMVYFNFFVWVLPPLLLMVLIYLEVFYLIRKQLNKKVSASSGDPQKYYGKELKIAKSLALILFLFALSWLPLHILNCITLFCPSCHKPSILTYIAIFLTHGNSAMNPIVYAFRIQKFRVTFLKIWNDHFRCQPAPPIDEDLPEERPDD

[4] = target: T4, Adenosine receptor A3 (Homo sapiens, UniProt P0DMS8)
T4 sequence (P0DMS8 whole entry): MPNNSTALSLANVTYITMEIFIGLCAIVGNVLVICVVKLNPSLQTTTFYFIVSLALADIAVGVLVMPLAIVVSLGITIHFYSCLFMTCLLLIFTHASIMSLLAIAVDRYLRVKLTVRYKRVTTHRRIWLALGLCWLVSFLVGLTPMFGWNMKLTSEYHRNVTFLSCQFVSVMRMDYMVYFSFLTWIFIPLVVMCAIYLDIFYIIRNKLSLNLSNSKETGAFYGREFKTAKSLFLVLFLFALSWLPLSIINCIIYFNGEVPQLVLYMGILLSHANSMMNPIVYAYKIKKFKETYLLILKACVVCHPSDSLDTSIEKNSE

[5] = target: T5, Adenosine receptor A3 (Ovis aries, UniProt P35342)
T5 sequence (P35342 whole entry): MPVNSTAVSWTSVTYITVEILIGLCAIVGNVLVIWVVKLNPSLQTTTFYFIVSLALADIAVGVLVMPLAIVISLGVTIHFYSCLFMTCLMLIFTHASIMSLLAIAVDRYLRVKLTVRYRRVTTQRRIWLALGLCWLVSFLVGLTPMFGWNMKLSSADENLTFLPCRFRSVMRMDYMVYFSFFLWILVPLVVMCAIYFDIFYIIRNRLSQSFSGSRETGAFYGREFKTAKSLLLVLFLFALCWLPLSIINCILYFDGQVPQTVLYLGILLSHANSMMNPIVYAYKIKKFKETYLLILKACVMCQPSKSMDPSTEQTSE

What does the source list for `CCNC(=O)[C@H]1O[C@@H](n2cnc3c(N)ncnc32)[C@H](O)[C@@H]1O`?
Ki [1]: 27 nM; Ki [2]: 2 nM

`OC[C@H]1O[C@@H](n2cnc3c(NC4CCCC4)ncnc32)[C@H](O)[C@@H]1O` was tested. Which Ki [1] did it give?
Its Ki is 49 nM.

For `CNC(=O)C1OC(n2cnc3c(NCc4cccc(I)c4)ncnc32)C(O)C1O` (stereo not drawn) [3,4-dihydroxy-5-(6-{[(3-iodophenyl)methyl]amino}-9H-purin-9-yl)-N-methyloxolane-2-carboxamide], which Ki [2] is on record?
Its Ki is 30 nM.

Which Ki [1] does the source give for `Cn1c(=O)c2[nH]c(-c3ccc(S(=O)(=O)O)cc3)nc2n(C)c1=O` [4-(1,3-Dimethyl-2,6-dioxo-2,3,6,7-tetrahydro-1H-purin-8-yl)-benzenesulfonic acid] here?
The Ki was greater than 10000 nM.

For `Nc1ccc(CCNc2ncnc3c2ncn3C2OC(CO)C(O)C2O)cc1` (stereo not drawn) [ChEMBL_198532], which Ki [1] is on record?
The Ki was 47 nM.

And the Ki [2]?
The Ki was 6 nM.

For `CCCn1c(=O)c2[nH]c(C3CCCC3)nc2n(CCC)c1=O` [DPCPX], which Ki [1] is on record?
The Ki was 1120 nM.

With `Nc1ccc(CNc2ncnc3c2ncn3[C@@H]2O[C@H](CO)[C@@H](O)[C@H]2O)cc1I` [IABA] as the molecule, how does the Ki [1] read?
The Ki was 5 nM.

What about the Ki [2] of the same molecule?
Its Ki is 4 nM.

With `CCCn1c(=O)c2[nH]c(-c3ccc(OCC(=O)NCCN)cc3)nc2n(CCC)c1=O` [N-(2-Amino-ethyl)-2-[4-(2,6-dioxo-1,3-dipropyl-2,3,6,9-tetrahydro-1H-purin-8-yl)-phenoxy]-acetamide] as the molecule, how does the Ki [1] read?
Its Ki is 329 nM.

And the Ki [2]?
Its Ki is 5 nM.

For `CCCn1c(=O)c2[nH]c(-c3ccc(C=CC(=O)O)cc3)nc2n(CCC)c1=O` [NSC_129447], which Ki [1] is on record?
Its Ki is 746 nM.

What about the Ki [3] of the same molecule?
Its Ki is 120 nM.

And the Ki [2]?
The Ki was 3 nM.

And the Ki [4]?
Its Ki is 40 nM.

And the Ki [5]?
Its Ki is 21 nM.

For `CC(Cc1ccccc1)Nc1ncnc2c1ncn2C1OC(CO)C(O)C1O` (stereo not drawn) [R-N6-(2-phenylisopropyl) adenosine], which Ki [1] is on record?
The Ki was 49 nM.

Reference: BindingDB's records for PubMed 8996189 (Pfizer, 1997)
